Reference: ChEMBL document CHEMBL1201862, “PubChem BioAssay data set” (2004)
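Following 48 hours of exposure in 96-well plates, responses at five concentrations were used to interpolate endpoints linearly. The concentration for 50% growth inhibition is given as GI50.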 The source made the active and inactive calls. No stated cut-off is given here; in the data, active = GI50 up to about 1.1 µM and inactive = higher.

Assays:
Experiment in all cases: NCI anticancer screen, dose series, 48 h
M14 = test system: M14
NCI-H226 = test system: NCI-H226
DU-145 = test system: DU-145
SNB-19 = test system: SNB-19
SK-MEL-5 = test system: SK-MEL-5
SF-295 = test system: SF-295
A549 = test system: A549
BT-549 = test system: BT-549
CAKI-1 = test system: CAKI-1
Malme-3M = test system: Malme-3M
MOLT-4 = test system: MOLT-4
HT-29 = test system: HT-29
OVCAR-8 = test system: OVCAR-8
RXF 393 = test system: RXF 393
NCI/ADR-RES = test system: NCI/ADR-RES
PC-3 = test system: PC-3
NCI-H522 = test system: NCI-H522
UO-31 = test system: UO-31
LOX IMVI = test system: LOX IMVI
HCC 2998 = test system: HCC 2998
T47D = test system: T47D
MDA-MB-435 = test system: MDA-MB-435
OVCAR-5 = test system: OVCAR-5
MDA-MB-231 = test system: MDA-MB-231
786-0 = test system: 786-0
KM12 = test system: KM12
SF-268 = test system: SF-268
EKVX = test system: EKVX
SN12C = test system: SN12C
SF-539 = test system: SF-539
HCT-116 = test system: HCT-116
IGROV-1 = test system: IGROV-1
CCRF-CEM = test system: CCRF-CEM
OVCAR-3 = test system: OVCAR-3
UACC-62 = test system: UACC-62
HCT-15 = test system: HCT-15
MDA-N = test system: MDA-N
U-251 = test system: U-251
MCF7 = test system: MCF7
HOP-92 = test system: HOP-92
SK-OV-3 = test system: SK-OV-3
TK-10 = test system: TK-10
OVCAR-4 = test system: OVCAR-4
HL-60 = test system: HL-60
SR = test system: SR
Hs-578T = test system: Hs-578T
SK-MEL-28 = test system: SK-MEL-28
UACC-257 = test system: UACC-257
SNB-75 = test system: SNB-75
HOP-62 = test system: HOP-62
SK-MEL-2 = test system: SK-MEL-2
NCI-H23 = test system: NCI-H23
NCI-H460 = test system: NCI-H460
SW-620 = test system: SW-620
ACHN = test system: ACHN
K562 = test system: K562
COLO 205 = test system: COLO 205
A498 = test system: A498
RPMI-8226 = test system: RPMI-8226

Measured: GI50

O=C1CS(=O)(=O)C(c2cccc(Oc3ccccc3)c2)N1c1cccc(Cl)c1 (stereo unspecified)
active: HCC 2998 0.16 µM
inactive: M14 26.7 µM | NCI-H226 27.7 µM | DU-145 66.8 µM | SNB-19 43.4 µM | SK-MEL-5 15.7 µM | SF-295 33.4 µM | A549 37.3 µM | BT-549 29.9 µM | CAKI-1 25.7 µM | Malme-3M 20 µM | MOLT-4 19.1 µM | HT-29 28.6 µM | OVCAR-8 22.1 µM | RXF 393 23.3 µM | NCI/ADR-RES 29.8 µM | PC-3 20.6 µM | NCI-H522 14.9 µM | UO-31 37.1 µM | LOX IMVI 15.7 µM | T47D 16.9 µM | MDA-MB-435 13.9 µM | OVCAR-5 55.1 µM | MDA-MB-231 29.1 µM | 786-0 19.8 µM | KM12 26.5 µM | SF-268 23.2 µM | EKVX 17.6 µM | SN12C 31.8 µM | SF-539 18 µM | HCT-116 13.8 µM | IGROV-1 19.1 µM | CCRF-CEM 26.1 µM | OVCAR-3 24.5 µM | UACC-62 12.5 µM | MDA-N 16.6 µM | U-251 21.2 µM | MCF7 14.8 µM | HOP-92 11.6 µM | SK-OV-3 40.6 µM | TK-10 26.6 µM | OVCAR-4 26.5 µM | HL-60 30 µM | SR 12.1 µM | Hs-578T 27.5 µM | SK-MEL-28 36.6 µM | UACC-257 17.1 µM | SNB-75 36.3 µM | HOP-62 40.2 µM | SK-MEL-2 16.3 µM | NCI-H23 33.5 µM | NCI-H460 18.1 µM | SW-620 24.8 µM | ACHN 24.3 µM | K562 13.1 µM | COLO 205 18.8 µM
22.1 µM: HCT-15

CN(C)CCOc1ccc([N+](=O)[O-])c2cccnc12
> 100 µM: HCT-15
inactive: M14 > 100 µM | NCI-H226 > 100 µM | DU-145 > 100 µM | SNB-19 > 100 µM | SK-MEL-5 > 100 µM | SF-295 > 100 µM | A549 > 100 µM | BT-549 > 100 µM | CAKI-1 > 100 µM | Malme-3M > 100 µM | MOLT-4 60.8 µM | HT-29 39.4 µM | OVCAR-8 > 100 µM | NCI/ADR-RES > 100 µM | PC-3 > 100 µM | NCI-H522 61.9 µM | UO-31 > 100 µM | A498 > 100 µM | HCC 2998 > 100 µM | T47D > 100 µM | MDA-MB-435 > 100 µM | OVCAR-5 > 100 µM | MDA-MB-231 30.2 µM | 786-0 > 100 µM | KM12 > 100 µM | SF-268 > 100 µM | SN12C 60.4 µM | SF-539 > 100 µM | HCT-116 35.6 µM | IGROV-1 > 100 µM | CCRF-CEM > 100 µM | OVCAR-3 > 100 µM | UACC-62 > 100 µM | MDA-N 79.1 µM | U-251 > 100 µM | MCF7 > 100 µM | SK-OV-3 > 100 µM | TK-10 > 100 µM | HL-60 > 100 µM | SR > 100 µM | Hs-578T > 100 µM | SK-MEL-28 > 100 µM | UACC-257 86.9 µM | SNB-75 40.8 µM | HOP-62 > 100 µM | SK-MEL-2 > 100 µM | NCI-H23 > 100 µM | NCI-H460 > 100 µM | SW-620 78.7 µM | ACHN > 100 µM | K562 97.3 µM | COLO 205 43 µM

CN1C(=O)C(O)C[C@@H]1c1ccccc1 (stereo partly specified)
> 100 µM: HCT-15
inactive: M14 > 100 µM | NCI-H226 > 100 µM | DU-145 > 100 µM | SNB-19 > 100 µM | SK-MEL-5 > 100 µM | SF-295 > 100 µM | A549 > 100 µM | BT-549 > 100 µM | RPMI-8226 > 100 µM | CAKI-1 > 100 µM | Malme-3M > 100 µM | MOLT-4 > 100 µM | HT-29 > 100 µM | OVCAR-8 > 100 µM | RXF 393 > 100 µM | NCI/ADR-RES > 100 µM | PC-3 > 100 µM | NCI-H522 > 100 µM | UO-31 > 100 µM | LOX IMVI > 100 µM | HCC 2998 > 100 µM | T47D > 100 µM | MDA-MB-435 > 100 µM | OVCAR-5 > 100 µM | MDA-MB-231 > 100 µM | 786-0 > 100 µM | KM12 > 100 µM | SF-268 > 100 µM | EKVX > 100 µM | SN12C > 100 µM | SF-539 > 100 µM | HCT-116 > 100 µM | IGROV-1 > 100 µM | CCRF-CEM > 100 µM | OVCAR-3 > 100 µM | UACC-62 > 100 µM | MDA-N > 100 µM | U-251 > 100 µM | MCF7 > 100 µM | HOP-92 > 100 µM | SK-OV-3 > 100 µM | TK-10 > 100 µM | OVCAR-4 > 100 µM | HL-60 > 100 µM | SR > 100 µM | Hs-578T > 100 µM | SK-MEL-28 > 100 µM | UACC-257 > 100 µM | SNB-75 > 100 µM | HOP-62 > 100 µM | SK-MEL-2 > 100 µM | NCI-H23 > 100 µM | SW-620 > 100 µM | ACHN > 100 µM | COLO 205 > 100 µM
